Assay results taken from US20150305333A1, “USE OF GLUCOSAMINE AMIDES AS PLANT GROWTH AND YIELD ENHANCERS” (PIONEER HI-BRED INTERNATIONAL, INC., priority 2012, published 2015).

Assays:
[1] = system: AC Metcalf spring barley (Hordeum vulgare); assay: Spring barley field trial 2011: emergence, vigor, tillering; assay type: in vivo; settings: for Barley Crop Vigor (1-5 scale): vigor scale of Example 3; for Barley Plant Tillers: 24 DAP
Protocol: A spring barley field trial was conducted to evaluate the effects of NPG on plant emergence and vigor in AC Metcalf spring barley (Hordeum vulgare) planted near Wetaskiwin, Alberta, Canada, in 2011. Seed treatments included an Untreated Control, 10^−7 M NPG seed coating, 10^−7 M NPG seed coating followed by an NPG foliar treatment (10^−7 M NPG+Foliar), 10^−6 M natural LCO, and 10^−6 M commercial LCO plus a commercial rhizobia inoculant (LCO+RI) applied as a seed coating. The natural LCO was provided by Dr. Don Smith (McGill University, Montreal, Canada) and prepared as described in Example 2.
Seed coating was performed by injecting 7 mL of aqueous NPG solution per 100 g barley seed into the coating machine followed by treatment and drying. […] Foliar NPG was applied 47 days after planting. Plants were sprayed using a four-nozzle hollow-cone boom and CO2 propellant at a speed of 10.8 km/h and 40 psi, with a mix size of 1.0 L and spray rate of 110 L/ha water volume. Seeds designated for use as the Untreated Control also received the fungicide maintenance treatment.
Treated seeds were sent to the DuPont Wetaskiwin, Alberta, Canada, Research Station and planted on May 19th in a loam composed of 29% sand, 46% silt and 25% clay and 4.8% organic matter. […] Barley was planted at a rate of 100 kg seeds/ha to a depth of 2.5 cm. Weeds were controlled using 60 grams ai/ha pinoxaden, 30 grams/ha thifensulfuron methyl, and 280 grams ai/ha 4-chloro-2-methylphenox acetic acid, 2-ethylhexyl ester. Adigor surfactant was used at a rate of 700 ml/hectare. All of the products used are considered industry standards and representative of what is used in commercial production.
The trial was conducted using a randomized complete block design with a plot size of 2 m by 6 m with 22.9 cm row spacing, 3.3 cm plant spacing and four replications. Height and yield data was not collected in this trial due to a large hailstorm on Jul. 18, 2011.
Crop vigor was observed 11 and 14 days DAP using the vigor scale described in Example 3 (Table 12).

[2] = system: spring wheat (Triticum aestivum); assay: Spring wheat field trial 2011: emergence, vigor, tillering, biomass, yield; assay type: in vivo; settings: for Spring Wheat Crop Vigor (1-5 scale): vigor scale of Example 3; for Spring Wheat Biomass: 82 DAP, aerial portion
Protocol: A field trial was conducted to evaluate the effects of NPG on plant emergence, vigor, tillering, biomass and yield in spring wheat (Triticum aestivum) planted near Breslau, Ontario, Canada, in 2011. Seed treatments included an Untreated Control, 10^−7 M NPG applied as a seed treatment, 10^−7 M NPG followed by two foliar NPG applications, 10^−6 M natural LCO, and 10^−6 M commercial LCO plus a commercial rhizobia inoculant (LCO+RI). The natural LCO was provided by Dr. Don Smith (McGill University, Montreal, Canada) and prepared as described in Example 2. Seed coating was performed by injecting 7 mL of aqueous NPG solution per 100 g wheat seed into a coating machine followed by treatment and drying. […] Seed designated for use as the Untreated Check also received the fungicide maintenance treatment.
Treated seeds were sent to the DuPont Breslau, Ontario Research Station and planted on June 8th in a loam composed of 34% sand, 48% silt and 18% clay and 2.9% organic matter. […] Spring wheat was planted at a rate of 100 kg seeds/ha to a depth of 3 cm. Weeds were controlled using 8.79 wt % fenoxyprop-P-ethyl at a rate of 770 mL/ha and a mixture of 33.33 wt % thifensulfuron methyl and 16.67 wt % tribenuron methyl at a rate of 30 g/ha. Disease was controlled using 23.6 wt % pyraclostrobin fungicide at a rate of 0.4 L/ha. All of the products used are considered industry standards and representative of what is used in commercial production.
The trial was conducted using a randomized complete block design with a plot size of 2.5 m by 8 m with 17.8 cm row spacing, 3.3 cm plant spacing and four replications.
Foliar NPG applications were performed 36 and 49 days after planting. The treatments were sprayed using a 4 nozzle hollow-cone boom and CO2 propellant at a speed of 4.5 km/h and 40 psi. The 36 day application utilized a mix size of 2.0 L and spray rate of 200 L/ha water volume. The 49 day application utilized a mix size of 3.0 L and spray rate of 300 L/ha water volume.
Plant Biomass was determined at 82 DAP by harvesting the entire aerial portion of the plants from each plot (Table 17). A non-statistically significant increase in biomass was determined for the NPG, LCO+RI, and LCO treatments compared to the Untreated Control.
Yield was determined by harvesting the entire 8 m of the plot and transforming the data to kg/ha (Table 18). Yields are not corrected for differences in emergence rates.

[3] = 10^−7M seed coating + Foliar, 11 DAP
[4] = 10^−7M seed coating + Foliar, 14 DAP
[5] = 10^−7M seed treatment + Foliar, 35 DAP

Compound: CCCCCCC=CCCCCCCCC(=O)NC1C(OC)OC(CO)C(O)C1O [NPG, Methyl 2-deoxy-2-N-(hexadece-9,10-cis-eneoyl)-β-D-glucopyranoside]
- Barley Crop Emergence [1, 3]: 25a plants/m row
- Barley Crop Vigor (1-5 scale) [1, 3]: 3a
- Barley Crop Emergence [1, 4]: 31.8a plants/m row
- Barley Crop Vigor (1-5 scale) [1, 4]: 4a
- Barley Plant Tillers ([1]; 10^−7M seed coating + Foliar): 95a %
- Barley Crop Emergence ([1]; 10^−7M seed coating, 11 DAP): 22.5a plants/m row
- Barley Crop Vigor (1-5 scale) ([1]; 10^−7M seed coating, 11 DAP): 3a
- Barley Crop Emergence ([1]; 10^−7M seed coating, 14 DAP): 27.4a plants/m row
- Barley Crop Vigor (1-5 scale) ([1]; 10^−7M seed coating, 14 DAP): 4a
- Barley Plant Tillers ([1]; 10^−7M seed coating): 83a %
- Spring Wheat Yield ([2]; 10^−7M seed treatment): 1100a kg/ha
- Spring Wheat Yield ([2]; 10^−7M seed treatment + Foliar): 1188a kg/ha
- Wheat Crop Emergence ([2]; 10^−7M seed treatment + Foliar, 13 DAP): 53a %
- Spring Wheat Tillering [2, 5]: 8.0a tillers/plant
- Wheat Crop Emergence [2, 5]: 100a %
- Spring Wheat Crop Vigor (1-5 scale) [2, 5]: 3.6a
- Spring Wheat Crop Vigor (1-5 scale) ([2]; 10^−7M seed treatment + Foliar, 40 DAP): 3.5b
- Spring Wheat Crop Vigor (1-5 scale) ([2]; 10^−7M seed treatment + Foliar, 52 DAP): 3.5a
- Spring Wheat Biomass ([2]; 10^−7M seed treatment + Foliar): 0.198a kg/plant
- Wheat Crop Emergence ([2]; 10^−7M seed treatment, 13 DAP): 53a %
- Spring Wheat Tillering ([2]; 10^−7M seed treatment, 35 DAP): 9.0a tillers/plant
- Wheat Crop Emergence ([2]; 10^−7M seed treatment, 35 DAP): 100a %
- Spring Wheat Crop Vigor (1-5 scale) ([2]; 10^−7M seed treatment, 35 DAP): 3.4a
- Spring Wheat Crop Vigor (1-5 scale) ([2]; 10^−7M seed treatment, 40 DAP): 3.5b
- Spring Wheat Crop Vigor (1-5 scale) ([2]; 10^−7M seed treatment, 52 DAP): 3.4a
- Spring Wheat Biomass ([2]; 10^−7M seed treatment): 0.190a kg/plant
